What all share (test): radiometric kinase profiling (33 PanQinase)
Common to all, as to type: biochemical

Assay [1] deals with T1, CDK4_cyclinD1 (Homo sapiens, UniProt P11802).
T1 construct: purchased Proqinase, Germany
The note with it: read-out: Inhibitory effect (%) CDK4_cyclinD1. In a few lines:
(§1)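 Enzyme/substrate mixes were incubated with [γ-33P]-ATP and compound (added as a 0.1 μM solution in 10% DMSO) at 30 °C for 60 min, then stopped with H3PO4 and washed with NaCl. 33P incorporation was scintillation-counted, and residual activity (%) was normalized to untreated control and background.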

Assay [2] addresses T2, LRRK2 (Homo sapiens, UniProt Q5S007).
T2 construct: purchased ProQinase (33PanQinase Activity Assay)
The note with it: read-out: Inhibitory effect (%) LRRK2. The method in brief: as §1

The target in assay [3] is T3, FER (Homo sapiens, UniProt P16591).
T3 construct: purchased ProQinase (33PanQinase Activity Assay)
The note with it: read-out: Inhibitory effect (%) FER. In a few lines: as §1

Assay [4] deals with T4, ACVR1 (Homo sapiens, UniProt Q04771).
T4 construct: purchased Proqinase, Germany
T4 sequence (Q04771 21-509): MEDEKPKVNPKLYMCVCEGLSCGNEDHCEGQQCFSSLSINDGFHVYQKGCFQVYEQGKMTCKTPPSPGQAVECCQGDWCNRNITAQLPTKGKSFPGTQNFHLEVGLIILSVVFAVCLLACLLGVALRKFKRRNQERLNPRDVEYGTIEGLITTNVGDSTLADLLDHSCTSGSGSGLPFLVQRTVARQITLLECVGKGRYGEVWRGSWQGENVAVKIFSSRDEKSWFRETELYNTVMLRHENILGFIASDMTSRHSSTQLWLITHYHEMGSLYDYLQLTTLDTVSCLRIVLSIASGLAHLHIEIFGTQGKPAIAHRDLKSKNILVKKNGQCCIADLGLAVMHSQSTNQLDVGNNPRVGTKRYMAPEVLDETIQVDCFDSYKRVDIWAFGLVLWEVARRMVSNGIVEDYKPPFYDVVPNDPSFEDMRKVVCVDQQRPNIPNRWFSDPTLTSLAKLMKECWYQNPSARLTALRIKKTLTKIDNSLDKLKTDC
The note with it: read-out: Inhibitory effect (%) ACVR1. In a few lines: as §1

Assay [5] deals with T5, RIPK2 (Homo sapiens, UniProt O43353).
T5 construct: purchased ProQinase (33PanQinase Activity Assay)
The note with it: read-out: Inhibitory effect (%) RIPK2. The method in brief: as §1

Assay [6] concerns the target T6, GSG2 (Homo sapiens, UniProt Q8TF76).
T6 construct: purchased ProQinase (33PanQinase Activity Assay)
T6 sequence (Q8TF76 1-798): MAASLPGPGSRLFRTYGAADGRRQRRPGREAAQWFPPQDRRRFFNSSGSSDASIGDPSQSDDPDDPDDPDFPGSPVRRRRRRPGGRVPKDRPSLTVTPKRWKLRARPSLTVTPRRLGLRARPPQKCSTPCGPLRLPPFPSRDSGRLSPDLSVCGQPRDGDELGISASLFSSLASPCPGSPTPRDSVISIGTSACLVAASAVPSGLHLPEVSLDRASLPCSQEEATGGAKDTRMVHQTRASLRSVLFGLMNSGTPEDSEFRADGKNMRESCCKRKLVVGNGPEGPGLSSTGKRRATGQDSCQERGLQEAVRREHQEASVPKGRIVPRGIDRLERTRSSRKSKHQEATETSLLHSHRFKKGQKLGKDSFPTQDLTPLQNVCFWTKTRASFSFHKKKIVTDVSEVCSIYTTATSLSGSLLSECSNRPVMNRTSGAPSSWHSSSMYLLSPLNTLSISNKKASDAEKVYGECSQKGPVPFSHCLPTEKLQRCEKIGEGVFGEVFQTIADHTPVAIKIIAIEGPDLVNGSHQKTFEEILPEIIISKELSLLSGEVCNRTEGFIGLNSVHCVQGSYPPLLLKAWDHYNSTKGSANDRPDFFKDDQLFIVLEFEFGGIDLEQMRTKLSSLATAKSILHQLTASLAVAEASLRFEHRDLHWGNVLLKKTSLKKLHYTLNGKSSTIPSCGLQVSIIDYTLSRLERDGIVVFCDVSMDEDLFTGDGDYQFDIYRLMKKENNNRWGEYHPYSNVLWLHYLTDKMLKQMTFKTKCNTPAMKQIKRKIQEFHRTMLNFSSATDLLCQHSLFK
The note with it: read-out: Inhibitory effect (%) GSG2. The method in brief: as §1

In assay [7] the target is T7, MET (Homo sapiens, UniProt P08581).
T7 construct: purchased ProQinase (33PanQinase Activity Assay)
The note with it: read-out: Inhibitory effect (%) MET. In a few lines: as §1

Assay [8] deals with T8, IRAK4 (Homo sapiens, UniProt Q9NWZ3).
T8 construct: purchased ProQinase (33PanQinase Activity Assay)
T8 sequence (Q9NWZ3 1-460): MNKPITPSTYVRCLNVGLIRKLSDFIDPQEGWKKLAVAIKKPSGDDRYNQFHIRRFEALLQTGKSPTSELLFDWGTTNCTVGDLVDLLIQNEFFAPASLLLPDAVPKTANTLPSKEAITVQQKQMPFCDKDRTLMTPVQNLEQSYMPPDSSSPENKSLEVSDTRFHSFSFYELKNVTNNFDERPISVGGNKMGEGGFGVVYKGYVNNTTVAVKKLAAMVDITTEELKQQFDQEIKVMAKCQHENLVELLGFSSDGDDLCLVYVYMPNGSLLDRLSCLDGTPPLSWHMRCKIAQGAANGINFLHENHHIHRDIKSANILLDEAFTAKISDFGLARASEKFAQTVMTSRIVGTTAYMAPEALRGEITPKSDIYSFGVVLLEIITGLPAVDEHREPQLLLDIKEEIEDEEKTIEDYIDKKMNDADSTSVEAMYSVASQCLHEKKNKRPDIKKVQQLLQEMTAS
The note with it: read-out: Inhibitory effect (%) IRAK4. The method in brief: as §1

The target in assay [9] is T9, PRKACA (Homo sapiens, UniProt P17612).
T9 construct: purchased ProQinase (33PanQinase Activity Assay)
The note with it: read-out: Inhibitory effect (%) PRKACA. In a few lines: as §1

T1 sequence (P11802 whole entry): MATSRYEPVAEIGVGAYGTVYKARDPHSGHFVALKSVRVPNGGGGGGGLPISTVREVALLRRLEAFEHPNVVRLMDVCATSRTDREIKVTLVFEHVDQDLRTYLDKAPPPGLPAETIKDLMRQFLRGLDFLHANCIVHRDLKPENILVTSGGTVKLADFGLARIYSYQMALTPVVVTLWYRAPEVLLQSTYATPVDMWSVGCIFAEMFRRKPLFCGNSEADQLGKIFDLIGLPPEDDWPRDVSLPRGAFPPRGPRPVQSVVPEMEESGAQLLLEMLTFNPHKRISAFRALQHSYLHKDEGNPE
T1 sequence (P24385 whole entry partner): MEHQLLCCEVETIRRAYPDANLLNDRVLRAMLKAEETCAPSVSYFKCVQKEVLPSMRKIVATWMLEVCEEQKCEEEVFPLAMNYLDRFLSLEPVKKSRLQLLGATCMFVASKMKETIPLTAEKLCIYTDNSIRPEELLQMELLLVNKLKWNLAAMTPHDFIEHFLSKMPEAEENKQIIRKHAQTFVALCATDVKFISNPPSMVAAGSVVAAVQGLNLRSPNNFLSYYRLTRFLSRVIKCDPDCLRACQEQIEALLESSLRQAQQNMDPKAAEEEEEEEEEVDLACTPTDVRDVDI
T5 sequence (O43353 whole entry): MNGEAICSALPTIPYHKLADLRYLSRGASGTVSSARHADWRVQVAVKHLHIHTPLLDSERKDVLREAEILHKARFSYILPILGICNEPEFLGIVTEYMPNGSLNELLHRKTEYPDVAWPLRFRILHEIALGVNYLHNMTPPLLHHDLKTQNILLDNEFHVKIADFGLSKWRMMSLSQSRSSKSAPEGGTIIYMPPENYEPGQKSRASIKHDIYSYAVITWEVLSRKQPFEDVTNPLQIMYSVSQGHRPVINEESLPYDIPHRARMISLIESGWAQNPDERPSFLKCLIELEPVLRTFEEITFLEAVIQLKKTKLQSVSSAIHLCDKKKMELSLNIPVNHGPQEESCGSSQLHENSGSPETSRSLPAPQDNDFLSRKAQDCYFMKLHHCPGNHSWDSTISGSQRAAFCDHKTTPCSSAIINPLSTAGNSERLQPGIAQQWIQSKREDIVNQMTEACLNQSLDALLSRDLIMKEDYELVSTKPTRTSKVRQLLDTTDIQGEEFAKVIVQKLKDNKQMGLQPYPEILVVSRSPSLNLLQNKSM
T2 sequence (Q5S007 whole entry): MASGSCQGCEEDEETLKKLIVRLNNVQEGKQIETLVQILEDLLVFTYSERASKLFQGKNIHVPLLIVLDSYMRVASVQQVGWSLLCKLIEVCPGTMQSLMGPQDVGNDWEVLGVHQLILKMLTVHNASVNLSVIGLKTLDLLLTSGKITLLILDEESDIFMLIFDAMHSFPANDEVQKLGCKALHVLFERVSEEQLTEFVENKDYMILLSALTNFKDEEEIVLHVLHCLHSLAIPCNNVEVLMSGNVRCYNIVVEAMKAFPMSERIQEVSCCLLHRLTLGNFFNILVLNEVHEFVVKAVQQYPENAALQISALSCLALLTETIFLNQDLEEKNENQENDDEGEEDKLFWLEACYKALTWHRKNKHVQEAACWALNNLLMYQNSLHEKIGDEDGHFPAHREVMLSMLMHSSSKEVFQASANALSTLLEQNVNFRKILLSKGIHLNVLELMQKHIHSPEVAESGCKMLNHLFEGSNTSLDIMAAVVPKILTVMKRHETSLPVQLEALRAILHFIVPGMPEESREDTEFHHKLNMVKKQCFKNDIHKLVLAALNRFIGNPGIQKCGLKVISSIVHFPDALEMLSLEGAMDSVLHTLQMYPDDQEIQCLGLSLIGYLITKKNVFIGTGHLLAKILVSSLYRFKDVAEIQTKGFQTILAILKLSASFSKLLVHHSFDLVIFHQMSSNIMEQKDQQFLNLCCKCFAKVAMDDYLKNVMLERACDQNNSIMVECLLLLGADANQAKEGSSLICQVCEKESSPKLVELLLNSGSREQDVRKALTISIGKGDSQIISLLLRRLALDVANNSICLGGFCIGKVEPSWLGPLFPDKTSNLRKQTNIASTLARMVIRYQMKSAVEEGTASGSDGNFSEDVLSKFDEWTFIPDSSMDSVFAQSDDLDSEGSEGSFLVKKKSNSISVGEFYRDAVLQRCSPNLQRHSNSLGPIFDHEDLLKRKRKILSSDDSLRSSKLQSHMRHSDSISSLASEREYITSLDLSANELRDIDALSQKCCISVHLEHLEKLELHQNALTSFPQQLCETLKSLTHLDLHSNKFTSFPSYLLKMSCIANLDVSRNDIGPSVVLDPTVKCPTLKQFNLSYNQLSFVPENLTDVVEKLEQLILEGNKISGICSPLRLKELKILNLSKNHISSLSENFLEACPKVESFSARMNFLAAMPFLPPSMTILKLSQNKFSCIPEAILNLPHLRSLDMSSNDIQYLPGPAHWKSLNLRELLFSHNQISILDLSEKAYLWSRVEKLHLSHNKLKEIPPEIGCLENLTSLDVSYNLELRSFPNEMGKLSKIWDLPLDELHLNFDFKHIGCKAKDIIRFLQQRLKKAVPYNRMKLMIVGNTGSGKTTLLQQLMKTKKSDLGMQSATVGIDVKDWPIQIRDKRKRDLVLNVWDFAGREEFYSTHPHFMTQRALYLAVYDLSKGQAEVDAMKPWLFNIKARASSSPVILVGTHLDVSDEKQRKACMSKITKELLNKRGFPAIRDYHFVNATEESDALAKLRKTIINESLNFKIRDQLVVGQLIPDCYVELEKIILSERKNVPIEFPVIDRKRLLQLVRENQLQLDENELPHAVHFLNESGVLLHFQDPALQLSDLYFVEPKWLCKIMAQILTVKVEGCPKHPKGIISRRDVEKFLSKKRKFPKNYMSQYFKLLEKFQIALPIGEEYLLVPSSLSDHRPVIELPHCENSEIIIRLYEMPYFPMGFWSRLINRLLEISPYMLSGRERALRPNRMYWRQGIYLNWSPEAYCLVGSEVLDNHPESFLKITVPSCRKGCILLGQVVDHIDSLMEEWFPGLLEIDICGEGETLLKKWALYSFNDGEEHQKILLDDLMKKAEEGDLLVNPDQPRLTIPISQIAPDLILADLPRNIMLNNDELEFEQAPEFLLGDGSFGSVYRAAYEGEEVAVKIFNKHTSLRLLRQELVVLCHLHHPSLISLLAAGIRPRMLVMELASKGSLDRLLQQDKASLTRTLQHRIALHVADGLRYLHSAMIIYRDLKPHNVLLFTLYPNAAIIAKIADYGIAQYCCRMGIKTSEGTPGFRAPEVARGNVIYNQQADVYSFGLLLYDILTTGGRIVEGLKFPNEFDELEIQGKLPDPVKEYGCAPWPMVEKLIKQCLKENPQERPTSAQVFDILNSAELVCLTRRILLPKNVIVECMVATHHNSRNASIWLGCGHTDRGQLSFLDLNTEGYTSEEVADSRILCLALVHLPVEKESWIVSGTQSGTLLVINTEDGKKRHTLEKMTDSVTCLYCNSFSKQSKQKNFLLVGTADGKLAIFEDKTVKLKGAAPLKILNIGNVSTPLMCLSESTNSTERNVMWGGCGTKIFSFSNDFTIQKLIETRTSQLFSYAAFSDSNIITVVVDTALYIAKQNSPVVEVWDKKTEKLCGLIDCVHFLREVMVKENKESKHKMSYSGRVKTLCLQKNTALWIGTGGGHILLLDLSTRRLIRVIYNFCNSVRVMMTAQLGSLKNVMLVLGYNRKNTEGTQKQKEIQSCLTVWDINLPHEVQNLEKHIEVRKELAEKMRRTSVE
T3 sequence (P16591 whole entry): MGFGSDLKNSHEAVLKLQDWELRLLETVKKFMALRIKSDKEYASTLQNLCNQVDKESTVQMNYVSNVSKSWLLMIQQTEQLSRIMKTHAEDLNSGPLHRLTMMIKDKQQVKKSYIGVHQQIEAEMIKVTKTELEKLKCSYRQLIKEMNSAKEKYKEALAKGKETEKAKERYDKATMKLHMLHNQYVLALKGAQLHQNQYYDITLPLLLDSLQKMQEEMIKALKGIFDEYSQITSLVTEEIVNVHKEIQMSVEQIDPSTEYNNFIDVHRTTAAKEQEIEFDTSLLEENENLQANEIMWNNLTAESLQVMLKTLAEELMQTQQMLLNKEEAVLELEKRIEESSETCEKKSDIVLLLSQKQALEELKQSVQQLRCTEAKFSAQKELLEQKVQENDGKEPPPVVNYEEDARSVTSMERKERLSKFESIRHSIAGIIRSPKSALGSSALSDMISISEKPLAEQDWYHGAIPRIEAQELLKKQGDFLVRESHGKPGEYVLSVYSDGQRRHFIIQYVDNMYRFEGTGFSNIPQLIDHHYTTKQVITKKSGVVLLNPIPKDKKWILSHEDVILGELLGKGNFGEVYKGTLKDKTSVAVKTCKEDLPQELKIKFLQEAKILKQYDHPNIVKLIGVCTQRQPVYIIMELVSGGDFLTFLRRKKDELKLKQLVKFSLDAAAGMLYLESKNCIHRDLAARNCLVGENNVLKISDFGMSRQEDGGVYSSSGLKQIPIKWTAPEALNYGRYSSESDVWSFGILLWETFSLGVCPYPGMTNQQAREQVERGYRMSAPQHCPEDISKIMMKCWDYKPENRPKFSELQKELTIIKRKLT

Turning to `c1ccc2c(-c3cnn4cc(-c5ccc(N6CCNCC6)cc5)cnc34)ccnc2c1` [LDN-193189, reference compound], the inhibition at 0.1 µM in assay [1] was -10.1%; in assay [2], 5.16%; in assay [3] it was 14.4%; in [4] it was 67.7%; in assay [5] it was 91.1%; in assay [6] it was -5.75%. In addition, the values for the inhibition at 0.1 µM in [7], in [8] and in assay [9] were 1.47%, -6.28% and -14.1%, respectively.

On to `CN1CCc2cccc(c2)Nc2nccc(n2)N2CCCc3cc(ccc32)C1` [OD16], for which the inhibition at 0.1 µM in assay [1] is 20.3%; in assay [2], 18.4%; in assay [3] it was -18.9%; in [4], 90.2%; in [5] it was 36.5%; in assay [6], 6.26%. Besides, the inhibition at 0.1 µM in assay [7] was 5.95%; in assay [8], 4.7%; in assay [9] it was -19.5%.

Consider `CN1CCC(=O)NCCNc2ccn3ncc(c3n2)-c2cccc(c2)C1` [OD29], for which the inhibition at 0.1 µM was -13.8% in assay [1]; 13.8% in [2]; -7.91% in assay [3]; 92.5% in [4]; 62.5% in assay [5]; 34.6% in assay [6]. For the same compound, the inhibition at 0.1 µM in assay [7] is -3.42%; in assay [8], 26.4%; in assay [9] it was 9.09%.

These data come from paper PMC8231556, “Inhibiting Endothelial Cell Function in Normal and Tumor Angiogenesis Using BMP Type I Receptor Macrocyclic Kinase Inhibitors” (Cancers, 2021).
